Laboratory results from PubChem BioAssay (NCI).
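Cells were grown in 96-well plates and exposed to each compound for 48 hours at five concentrations; endpoints were interpolated linearly between bracketing concentrations, or set to the highest concentration if not reached. GI50 marks 50% less growth. TGI: total growth inhibition.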

Assays:
Assay in all cases: NCI anticancer screen, dose series, 48 h
786-0 renal = test system: 786-0 renal
COLO 205 colon = test system: COLO 205 colon
DU-145 prostate = test system: DU-145 prostate
HT29 colon = test system: HT29 colon
KM12 colon = test system: KM12 colon
OVCAR-5 ovarian = test system: OVCAR-5 ovarian
OVCAR-8 ovarian = test system: OVCAR-8 ovarian
RPMI-8226 leukemia = test system: RPMI-8226 leukemia
UACC-257 melanoma = test system: UACC-257 melanoma
UACC-62 melanoma = test system: UACC-62 melanoma

Compound	TGI (786-0 renal)	TGI (COLO 205 colon)	TGI (DU-145 prostate)	TGI (HT29 colon)	TGI (KM12 colon)	TGI (OVCAR-5 ovarian)	TGI (OVCAR-8 ovarian)	TGI (RPMI-8226 leukemia)	TGI (UACC-257 melanoma)	TGI (UACC-62 melanoma)	GI50 (786-0 renal)	GI50 (COLO 205 colon)	GI50 (DU-145 prostate)	GI50 (HT29 colon)	GI50 (KM12 colon)	GI50 (OVCAR-5 ovarian)	GI50 (OVCAR-8 ovarian)	GI50 (RPMI-8226 leukemia)	GI50 (UACC-257 melanoma)	GI50 (UACC-62 melanoma)
CC1(C)CCC[C@]2(C)[C@@H](C=O)C(C=O)=CC[C@@H]12	> 100 µM	36.5 µM	50.3 µM	30 µM	31.5 µM	33.2 µM	31.2 µM	31.4 µM	31.5 µM	34.7 µM	–	–	–	–	–	–	–	–	–	–
CC1(C)N=C(N)N=C(N)N1c1ccc(CCCCc2ccc(S(=O)(=O)F)cc2)c(Cl)c1	19.3 µM	18.7 µM	17.5 µM	15.3 µM	15.2 µM	83.8 µM	18.4 µM	13 µM	19.1 µM	19.6 µM	0.224 µM	340 nM	0.484 µM	56.6 nM	454 nM	0.124 µM	0.452 µM	0.283 µM	0.929 µM	0.0559 µM
CN1CCC(n2cnc(-c3ccc(F)cc3)c2-c2ccnc(N)n2)CC1	> 25 µM	> 25 µM	> 25 µM	> 25 µM	> 25 µM	> 25 µM	> 25 µM	> 25 µM	> 25 µM	> 25 µM	11.6 µM	7070 nM	10.7 µM	6200 nM	8640 nM	13.8 µM	6.3 µM	16.6 µM	11.7 µM	14.1 µM
CC(=O)Oc1ccccc1C(=O)/C=C/c1cccc([N+](=O)[O-])c1	3.6 µM	11.5 µM	15.8 µM	4.92 µM	6.23 µM	17.1 µM	10.4 µM	16.1 µM	20.8 µM	12.2 µM	1.83 µM	3290 nM	4.37 µM	2360 nM	2400 nM	4.75 µM	3.11 µM	3.18 µM	6.99 µM	3.29 µM
CCN1C(=O)N(CC)C2C1NN=c1s/c(=C\c3ccccc3Br)c(=O)n12 (stereo not given)	37 µM	0.118 µM	> 38.7 µM	14 µM	1.5 µM	> 48.7 µM	> 73.5 µM	8.76 µM	33.3 µM	20.6 µM	0.0525 µM	30 nM	0.0362 µM	34.8 nM	23.6 nM	0.061 µM	0.0424 µM	0.0333 µM	9.29 µM	0.278 µM
COC(=O)c1nc(-c2ccccc2)oc1S(=O)(=O)n1nc(C)cc1N	25.6 µM	3.92 µM	29.3 µM	36.5 µM	32.4 µM	28.8 µM	50.3 µM	23.4 µM	39.7 µM	28.1 µM	12.5 µM	2110 nM	15.9 µM	16400 nM	16900 nM	13.8 µM	19.7 µM	5.39 µM	18.6 µM	13.7 µM
O=C(Oc1cccnc1)c1ccsc1Nc1ccnc(C(F)(F)F)c1	> 100 µM	24.6 µM	> 100 µM	6.34 µM	10.3 µM	> 100 µM	> 100 µM	51.8 µM	23.4 µM	> 100 µM	53 µM	4890 nM	24.6 µM	2390 nM	3380 nM	4.67 µM	4.14 µM	6.45 µM	10.5 µM	44.8 µM
